Source: PMC4031293 (Molecular pharmaceutics, 2014)
Entries after “also recorded” stand apart in the source; their conditions may differ. Structures can show the parent of a compound that is named as a salt. Where two headings read alike, the source gives them in different places.

Experiments:
[1] = pseudo steady-state blood CsA and plasma NFV concentrations in rats; format: in vivo, rat
[2] = cited from earlier work
P-gp [3] = target: P-gp (Rattus norvegicus, UniProt Q6PSM0); test: in vivo; details: Sprague Dawley; for Kp at 2 h: absence of CsA, 120 min; for Kp at 120 min: with maximum P-gp inhibition by CsA
Sequence of P-gp (Rattus norvegicus, UniProt Q6PSM0) (Q6PSM0 1-1272): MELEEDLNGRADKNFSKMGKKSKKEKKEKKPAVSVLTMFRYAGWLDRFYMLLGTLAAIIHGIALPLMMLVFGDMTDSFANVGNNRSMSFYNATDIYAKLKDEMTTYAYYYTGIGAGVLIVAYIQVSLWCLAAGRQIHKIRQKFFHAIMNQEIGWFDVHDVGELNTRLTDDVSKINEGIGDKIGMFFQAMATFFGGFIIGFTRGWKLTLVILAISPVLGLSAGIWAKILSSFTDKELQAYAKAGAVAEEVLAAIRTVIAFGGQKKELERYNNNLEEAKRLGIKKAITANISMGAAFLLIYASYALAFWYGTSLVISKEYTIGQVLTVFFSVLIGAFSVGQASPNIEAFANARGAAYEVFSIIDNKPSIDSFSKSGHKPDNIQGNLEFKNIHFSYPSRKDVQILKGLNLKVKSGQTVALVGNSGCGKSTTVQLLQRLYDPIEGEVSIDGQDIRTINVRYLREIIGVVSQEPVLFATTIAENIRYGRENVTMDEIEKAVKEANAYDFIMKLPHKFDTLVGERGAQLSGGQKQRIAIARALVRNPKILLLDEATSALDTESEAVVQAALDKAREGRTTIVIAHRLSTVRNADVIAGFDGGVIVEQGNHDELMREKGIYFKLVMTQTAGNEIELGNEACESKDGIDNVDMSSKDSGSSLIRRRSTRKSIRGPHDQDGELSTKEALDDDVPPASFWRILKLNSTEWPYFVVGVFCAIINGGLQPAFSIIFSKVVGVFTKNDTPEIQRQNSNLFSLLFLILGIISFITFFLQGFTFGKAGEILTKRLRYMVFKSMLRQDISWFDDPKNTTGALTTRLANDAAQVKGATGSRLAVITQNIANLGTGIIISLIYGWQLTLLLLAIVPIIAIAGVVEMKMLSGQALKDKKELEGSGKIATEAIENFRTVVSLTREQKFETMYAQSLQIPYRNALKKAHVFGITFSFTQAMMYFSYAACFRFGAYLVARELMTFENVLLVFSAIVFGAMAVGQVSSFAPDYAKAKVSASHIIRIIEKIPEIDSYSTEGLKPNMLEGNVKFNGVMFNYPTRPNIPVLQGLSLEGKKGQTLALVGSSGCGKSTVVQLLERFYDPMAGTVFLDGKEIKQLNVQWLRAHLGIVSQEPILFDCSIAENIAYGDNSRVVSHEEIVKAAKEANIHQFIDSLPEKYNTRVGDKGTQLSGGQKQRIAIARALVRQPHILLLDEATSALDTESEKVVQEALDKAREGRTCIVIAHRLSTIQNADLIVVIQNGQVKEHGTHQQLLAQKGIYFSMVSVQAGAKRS

P-gp [4] = details: cited from earlier work; for increase in brain distribution in mdr1a/b(−/−) vs. wild-type mice: 2, 3
P-gp at the human BBB [5] = details: for predicted increase in NFV human brain:plasma concentration ratio: prediction based on the rat study alone
P-gp at the rat BBB [6] = target: T1, P-gp at the rat BBB (Rattus norvegicus, UniProt Q6PSM0); details: from brain:plasma ratios 0.044 and 0.93
T1 sequence (Q6PSM0 1-1272): as above

BCRP = details: cited from earlier work
[7] = test system: intracerebral human glioblastoma; details: co-administration with paclitaxel compared to paclitaxel alone; cited from earlier work
P-gp at the human BBB [8] = details: tariquidar 6 mg/kg; cited from earlier work
P-gp [9] = details: P-gp chemically inhibited, mouse or rat; 4; 5; cited from earlier work
P-gp at the rat BBB [10] = target: T1, P-gp at the rat BBB; details: 5.6 µM CsA blood concentration; 18; cited from earlier work

SMILES: Cc1c(O)cccc1C(=O)N[C@@H](CSc1ccccc1)[C@H](O)CN1C[C@H]2CCCC[C@H]2C[C@H]1C(=O)NC(C)(C)C [NFV, Nelfinavir mesylate]
- effect of CsA on pseudo steady-state plasma NFV concentration ([1]; at 120 min, Student's t-test): did not significantly affect; also recorded: not significantly affected
- time to pseudo steady-state NFV plasma concentration ([1]; i.v. bolus plus constant rate i.v. infusion): ≤ 30 min
- blood: plasma ratio [2]: 0.877
- Kp at 2 h (P-gp [3]; NFV brain:plasma concentration ratio corrected for vascular contamination): 0.014 ± 0.01
- Kp at 2 h (P-gp [3]; NFV brain:plasma concentration ratio, not corrected for vascular contamination): 0.044 ± 0.01
- Kp at 120 min (P-gp [3]; NFV brain:plasma ratio after vascular-content correction): 0.9 ± 0.16
- Kp at 120 min (P-gp [3]; NFV brain:plasma ratio, uncorrected for vascular content): 0.93 ± 0.16
- increase in brain distribution in mdr1a/b(−/−) vs. wild-type mice (P-gp [4]): 3400%
- increase in brain:blood concentration ratio in mdr1a/b(−/−) vs. wild-type mice (P-gp [4]; 5): 3400%
- predicted increase in NFV human brain:plasma concentration ratio (P-gp at the human BBB [5]; CsA blood 1.5 µM): 236%
- predicted increase in the NFV brain:plasma concentration ratio / distribution into the human brain (P-gp at the human BBB [5]; CsA blood 1.5 µM, rat data and in vitro LLCPK1-MDR1 data): 241%
- predicted increase in the NFV brain:plasma concentration ratio at the human BBB (P-gp at the human BBB [5]; CsA blood 2.8 µM, in vitro data scaled using rat in vivo data): 555%
- predicted increase in NFV human brain:plasma concentration ratio (P-gp at the human BBB [5]; CsA blood 2.8 µM): 589%
- ft(P-gp), not corrected for vascular content (P-gp at the rat BBB [6]): 0.95
- substrate of BCRP (BCRP): not a substrate

SMILES: C/C=C/C[C@@H](C)C(=O)[C@H]1C(=O)N[C@@H](C(C)C)C(=O)N(C)CC(=O)N(C)[C@@H](CC(C)C)C(=O)N[C@@H](C(C)C)C(=O)N(C)[C@@H](CC(C)C)C(=O)N[C@@H](C)C(=O)N[C@H](C)C(=O)N(C)[C@@H](CC(C)C)C(=O)N(C)[C@@H](CC(C)C)C(=O)N(C)[C@@H](C(C)C)C(=O)N1C [PSC833]
- brain tumor volume [7]: significant reduction in the brain tumor volume

SMILES: CNC(=O)C(CCN1CCC(O)(c2ccc(Cl)cc2)CC1)(c1ccccc1)c1ccccc1 [dLop, N-desmethyl-loperamide]
- increase in distribution into the human brain (P-gp at the human BBB [8]): ≤ 300%

SMILES: CN(C)C(=O)C(CCN1CCC(O)(c2ccc(Cl)cc2)CC1)(c1ccccc1)c1ccccc1 [loperamide]
- increase in brain distribution in the presence vs. absence of the P-gp inhibitor (P-gp [9]): 1500%
- increase in brain distribution in mdr1a/b(−/−) vs. wild-type mice (P-gp [4]): 1200%
- increase in total loperamide-radioactivity uptake into the brain of rats (P-gp at the rat BBB [10]): 588%
